Test results from patent US20100255580A1, “Differentiation of Human Embryonic Stem Cells” (LIFESCCAN, INC., priority 2007, published 2010).

Tested on: H9 embryonic stem cells
Type: cell-based, human
Conditions: low serum, on MEFS
Method: Controls for each group included cells plated on […]-coated dishes and cultured in MEF-conditioned medium or cells plated on MEFs and cultured in ES medium. All groups contained three biological replicates and each biological replicate was repeated on two separate gene chips.
Sample preparation, hybridization, and image analysis were performed according to the Affymetrix Human Genome U133 Plus 2.0 Array. Following normalization and a log transformation, data analysis was performed using OmniViz® software (MA) and […] (VizXLabs, WA). Significant differences in gene expression between the samples were evaluated using analysis of variance and an F-test with adjusted P-value (Benjamini and
Hochberg correction) of ≦b 0.05. Only genes with a present call in at least one group were included in the analysis.

Substance: Activin A: a member of the TGFβ superfamily; R&D Systems; Group 2 = Activin A (100 ng/ml)
- log intensity, bHLH factor Hes4 (LOC57801): 2.4
- log intensity, beta3GalNAcT-1 mRNA for globoside synthase, clone: type 2: −0.0984
- log intensity, bone morphogenetic protein 2 (BMP2): 5.029
- log intensity, bone morphogenetic protein 5 (BMP5): 0.6148
- log intensity, bromodomain and PHD finger containing, 3: 0.3694
- log intensity, c-mer proto-oncogene tyrosine kinase (MERTK): 3.617
- log intensity, cDNA FLJ11390 fis, clone HEMBA1000561: 0.3644
- log intensity, cDNA FLJ13221 fis, clone NT2RP4002075: 1.082
- log intensity, cDNA FLJ13392 fis, clone PLACE1001280: 1.169
- log intensity, cDNA FLJ13810 fis, clone THYRO1000279: −0.8532
- log intensity, cDNA FLJ30081 fis, clone BGGI12000693: 1.125
- log intensity, cDNA FLJ34035 fis, clone FCBBF2004788: −2.008
- log intensity, cDNA FLJ36116 fis, clone TESTI2022338: 6.155
- log intensity, cDNA: FLJ22731 fis, clone HSI15841: 2.241
- log intensity, cDNA: FLJ22808 fis, clone KAIA2925: 2.414
- log intensity, cDNA: FLJ23067 fis, clone LNG04993: 0.8825
- log intensity, calmegin (CLGN): 3.111
- log intensity, cardiac ankyrin repeat protein (CARP): 1.987
- log intensity, cartilage linking protein 1: 0.9872
- log intensity, caspase-like apoptosis regulatory protein 2 (clarp): 5.2167
- log intensity, chemokine receptor CXCR4 mRNA: 5.669
- log intensity, cleft lip and palate associated transmembrane protein 1, clone MGC: 10593: 0.5567
- log intensity, clone FLC1492 PRO3121 mRNA: −3.392
- log intensity, clone HB-2 mRNA sequence: 1.252
- log intensity, clone IMAGE: 3509274, mRNA, partial cds: 0.7945
- log intensity, clone IMAGE: 4047715, mRNA: 1.527
- log intensity, clone MGC: 14801: 1.511
- log intensity, clone MGC: 24252 IMAGE: 3932604: 1.593
- log intensity, clone TUA8 Cri-du-chat region mRNA: 1.497
- log intensity, collagen, type V, alpha 1: 1.666
- log intensity, complement component 5 (C5): 1.596
- log intensity, core histone macroH2A2.2 (MACROH2A2): 3.662
- log intensity, cystatin C (amyloid angiopathy and cerebral hemorrhage) (CST3): 3.52
- log intensity, deiodinase, iodothyronine, type III (DIO3): 4.229
- log intensity, dickkopf (Xenopus laevis) homolog 1 (DKK1): 1.09
- log intensity, dual specificity phosphatase 4, clone MGC: 3713: 5.601
- log intensity, dynein, axonemal, light polypeptide 4 (DNAL4): 1.8494
- log intensity, dystrophin (muscular dystrophy, Duchenne and Becker types) (DMD), transcript variant Dp427p2: 3.044
- log intensity, ectodermal dysplasia 1, anhidrotic (ED1): 3.078
- log intensity, elongation of very long chain fatty acids (FEN1Elo2, SUR4Elo3, yeast)-like 2 (ELOVL2): 1.508
- log intensity, endothelin receptor type A (EDNRA), mRNA: 3.552
- log intensity, endothelin receptor type A (r1027): 1.954
- log intensity, enolase 2, (gamma, neuronal) (ENO2): 3.926
- log intensity, eomesodermin (Xenopus laevis) homolog (EOMES): 4.898
- log intensity, erythrocyte membrane protein band 4.9 (dematin) (EPB49): 0.9238
- log intensity, fasciculation and elongation protein zeta 1 (zygin I) (FEZ1), transcript variant 1: 2.203
- log intensity, forkhead box F2 (FOXF2): −1.115
- log intensity, gelsolin (amyloidosis, Finnish type) (GSN): 4.45
- log intensity, glucose-6-phosphate transporter (G6PT) gene, G6PT-Dt allele: 0.4077
- log intensity, glutathione S-transferase A2 (GSTA2): −0.4221
- log intensity, glycoprotein M6A: 2.3278
- log intensity, guanylate cyclase activator 1B (retina) (GUCA1B): 0.685
- log intensity, heparan sulfate proteoglycan 2 (perlecan): −0.9721
- log intensity, hexabrachion (tenascin C, cytotactin) (HXB): 2.854
- log intensity, high mobility group protein-R: 0.09529
- log intensity, hypothetical protein BC017868 (LOC159091): 0.4016
- log intensity, hypothetical protein DKFZp434F0318: 0.3947
- log intensity, hypothetical protein DKFZp434F2322: 1.421
- log intensity, hypothetical protein DKFZp564B052: 2.003
- log intensity, hypothetical protein FLJ10312: 4.892
- log intensity, hypothetical protein FLJ11155: −0.7126
- log intensity, hypothetical protein FLJ11560: 1.807
- log intensity, hypothetical protein FLJ12538 similar to ras-related protein RAB17: 4.734
- log intensity, hypothetical protein FLJ12666 (r758): 1.405
- log intensity, hypothetical protein FLJ12666 (r998): 4.028
- log intensity, hypothetical protein FLJ12838: 3.152
- log intensity, hypothetical protein FLJ21195 similar to protein related to DAC and cerberus: 0.764
- log intensity, hypothetical protein FLJ22471: 3.1349
- log intensity, hypothetical protein FLJ23091: 3.042
- log intensity, hypothetical protein FLJ23514: 5.247
- log intensity, hypothetical protein FLJ32835: 3.947
- log intensity, hypothetical protein MGC2865, clone MGC: 20246: −1.506
- log intensity, insulin-like growth factor binding protein 6 (IGFBP6): 3.304
- log intensity, keratin 19 (KRT19): 5.919
- log intensity, kidney-specific membrane protein NX-17: 3.45
- log intensity, lipase mRNA: 0.5585
- log intensity, lymphocyte antigen 6 complex, locus E (LY6E): 4.926
- log intensity, mRNA for KIAA0876 protein: 0.07325
- log intensity, mRNA for KIAA1161 protein: 1.981
- log intensity, mRNA for MSX-2: 1.945
- log intensity, mRNA for protein-tyrosine kinase: 1.042
- log intensity, mRNA; cDNA DKFZp434E082: 2.943
- log intensity, mRNA; cDNA DKFZp434K0621: 2.214
- log intensity, mRNA; cDNA DKFZp434P228: 3.113
- log intensity, mRNA; cDNA DKFZp547H236: 2.081
- log intensity, mRNA; cDNA DKFZp564K1672: 6.335
- log intensity, mRNA; cDNA DKFZp586G2120: 0.523
- log intensity, mRNA; cDNA DKFZp586L0120: 1.28
- log intensity, mRNA; cDNA DKFZp762H185: 3.792
- log intensity, mandaselin long form: 1.2296
- log intensity, matrix metalloproteinase 15 (membrane-inserted) (MMP15): 1.8336
- log intensity, microseminoprotein, beta-(MSMB): 0.1699
- log intensity, mitogen-activated protein kinase 10 (MAPK10): 2.286
- log intensity, nuclear factor of kappa light polypeptide gene enhancer in B-cells inhibitor, alpha: 5.478
- log intensity, nuclear receptor subfamily 0, group B, member 1 (NR0B1) (r534): 1.279
- log intensity, nuclear receptor subfamily 0, group B, member 1 (NR0B1) (r1079): 3.298
- log intensity, nudix (nucleoside diphosphate linked moiety X)-type motif 4: 5.689
- log intensity, olfactory receptor, family 52, subfamily A, member 1 (OR52A1): 0.6365
- log intensity, oxoglutarate dehydrogenase (lipoamide) (OGDH): −0.3853
- log intensity, partial LHX9 gene for LIM-homeobox 9, 3UTR: −0.1342
- log intensity, partial mRNA for putative nuclear factor: 2.679
- log intensity, phosphatidylinositol-4-phosphate 5-kinase, type I, beta (PIP5K1B): 2.467
- log intensity, phosphofructokinase, liver (PFKL): 2.704
- log intensity, pilin-like transcription factor (PILB): 4.382
- log intensity, pleiomorphic adenoma gene-like 1: 0.2215
- log intensity, plexin A2: 2.742
- log intensity, polycythemia rubra vera 1; cell surface receptor (PRV1): 0.9374
- log intensity, porcupine (MG61): 3.681
- log intensity, protease, serine, 4 (trypsin 4, brain): 3.359
- log intensity, protein S (alpha) (PROS1): 1.7883
- log intensity, protocadherin 10: 2.986
- log intensity, putative 47 kDa protein (r448): 1.052
- log intensity, putative 47 kDa protein (r770): 0.8617
- log intensity, putative sterol reductase SR-1 (TM7SF2): 2.478
- log intensity, ras homolog gene family, member B: 0.07189
- log intensity, receptor tyrosine kinase-like orphan receptor 2 (ROR2): 3.056
- log intensity, regulator of G protein signalling 5 (RGS5): 3.951
- log intensity, ret finger protein-like 2 (RFPL2): 0.5039
- log intensity, secreted apoptosis related protein 2 (SARP2): 5.743
- log intensity, secreted frizzled-related protein 1: 4.218
- log intensity, sialyltransferase (STHM): 1.503
- log intensity, signal transducer and activator of transcription 3 (acute-phase response factor): 0.5602
- log intensity, singed (Drosophila)-like (sea urchin fascin homolog like) (SNL): 5.254
- log intensity, sodium dependent phosphate transporter isoform NaPi-IIb: 0.232
- log intensity, solute carrier (SLC25A18): −1.1
- log intensity, solute carrier family 9 (sodiumhydrogen exchanger), isoform 5 (SLC9A5): 1.196
- log intensity, stanniocalcin 1 (STC1), mRNA: 5.28
- log intensity, stanniocalcin 1 (r1113): 5.701
- log intensity, testican 3 (HSAJ1454): 1.551
- log intensity, testis enhanced gene transcript (BAX inhibitor 1): 1.317
- log intensity, thyrotropin-releasing hormone (TRH): −0.2584
- log intensity, transcription factor 2, hepatic; LF-B3; variant hepatic nuclear factor (TCF2), transcript variant a: 2.543
- log intensity, transcriptional activator of the c-fos promoter (CROC4): 3.225
- log intensity, transmembrane tyrosine kinase mRNA: 1.932
- log intensity, tropomodulin, clone MGC: 3643: 1.464
- log intensity, tryptase, alpha: 3.764
- log intensity, tudor repeat associator with PCTAIRE 2: 3.275
- log intensity, tyrosine 3-monooxygenasetryptophan 5-monooxygenase activation protein, eta polypeptide (r705): 4.608
- log intensity, tyrosine 3-monooxygenasetryptophan 5-monooxygenase activation protein, eta polypeptide (r966): 4.926
